Values of other authors, collected in US7084135B1, “Prenyl transferase inhibitors” (Societe de Conseils de Recherches et d'Applications …, priority 1998, dated 2006).

Columns and labels:
[1] = tested on: HT29, adenocarcinoma; conditions: Colon: HT29, adenocarcinoma with Wild Type ras (WT)
[2] = tested on: DU145 adenocarcinoma; conditions: Prostate: DU145 adenocarcinoma, with WT ras

CC[C@H](C)[C@@H](COC(Cc1ccccc1)C(=O)N[C@@H](CCS(C)(=O)=O)C(=O)OC(C)C)NC[C@@H](N)CS (some centres unmarked) [Compound L744-832]
sensitivity of cell line to L744-832 [1]: sensitive | sensitivity of cell line to L744-832 [2]: resistant
